Consider one substance from patent US9642895B2, “Peptides for enhancing transdermal delivery” (3M INNOVATIVE PROPERTIES COMPANY, priority 2013, dated 2017).

This assay deals with hairless guinea pig skin. The assay is described as follows: In vitro penetration of FITC through full skin. It counts as in vitro ADME. The following applies: peptide 2.5 mg/mL with FITC sodium salt 0.05 mg/mL in PBS; 3 hours at room temperature then 4° C. overnight; UV 340 nm. The method, then: An in vitro assay to test for skin penetration enhancement was conducted using hairless guinea pig skin. A full skin sample from the back region of the animal was used. The test sample was prepared containing FITC sodium salt (at a concentration of 0.05 mg/mL), the peptide SHSACLDNTFRACG (Sequence ID No: 17) at a concentration of 2.5 mg/mL, and PBS (40 microliters). The control sample was prepared containing only FITC sodium salt (at a concentration of 0.05 mg/mL), and PBS (40 microliters). Each sample was applied to a separate 0.25 cm^2 section on the stratum corneum side of the guinea pig skin using a PIPETMAN Classic pipet. The treated skin samples were covered, maintained at room temperature for 3 hours and then at 4° C. overnight. The side of the skin sample opposite the application side was visually examined under ultraviolet light (340 nm). Visualization of a fluorescent spot on the side of the skin directly opposite from the application site was used to confirm penetration of FITC through the skin. […] For the control sample a fluorescent spot was not visualized on the side of the skin directly opposite from the application site.

For the substance “17 (SHSACLDNTFRACG; Phage display library peptides) [compound 17]”, the “fluorescent spot on the side of the skin directly opposite from the application site (penetration of FITC through the skin)” value is “a fluorescent spot was visualized”.
